Assay results from patent US9527807B2, “Sulfonamide derivative and use thereof” (Takeda Pharmaceutical Company Limited, priority 2011, dated 2016).

Target: T1, AMPA receptor (human GluR1 flip/stargazin expressed in CHO-K1 cells) (Homo sapiens, UniProt P42261)
T1 construct: expressed in transfected cells; host or cells: CHO-K1
Assay: AMPA receptor function enhancing activity using calcium influx as index
Assay type: cell-based
Conditions: change in fluorescence level in 3 min, 100% = 3 mM glutamic acid + 300 μM cyclothiazide, 0% = 3 mM glutamic acid only
Text: Human GluR1 flip cDNA was amplified by PCR using forward primer […] (SEQ ID NO: 1) and reverse primer […] (SEQ ID NO: 2) artificially synthesized using human brain-derived cDNA (BD Bio science) as a template. The amplified product was digested with restriction enzymes EcoRI, NotI (TAKARA SHUZO CO. LTD.), and incorporated into the same site of pcDNA3.1(+) (Invitrogen) to construct pcDNA3.1(+)/human GluR1 flip gene. Human stargazin cDNA was amplified by PCR using forward primer […] (SEQ ID NO: 3) and reverse primer. […] (SEQ ID NO: 4) artificially synthesized using human hippocampus cDNA as a template. The amplified product was digested with restriction enzymes XhoI, BamHI (TAKARA SHUZO CO. LTD.), and incorporated into the same site of pcDNA3.1(−) (Invitrogen) to construct pcDNA3.1 Zeo(−)/human stargazin gene.
(2) Construction of GluR1 Flip/Stargazin Expressing Cell
CHO-K1 cells passaged in a culture medium (Ham's F12 medium (Invitrogen) added with 10% inactivated fetal bovine serum (Morgate) and penicillin, streptomycin (Invitrogen)) were detached with 0.05% trypsin, 0.53 mM EDTA (Invitrogen) diluted with D-PBS(−). The detached cells were suspended in a culture medium, and recovered by a centrifugation operation at 1,000 rpm. The recovered cells were suspended again in D-PBS(−), and added to a 0.4 cm electroporation cuvette (BioRad). pcDNA3.1(+)/human GluR1 flip gene (5 μg) and pcDNA3.1 Zeo(−)/human stargazin gene (15 μg) were added, and the mixture was introduced into CHO-K1 cells using Gene Pulser II (BioRad) under the conditions of 950 μFd, […]. The introduced cells were cultured overnight in a culture medium and, the next day, plated in a 96 well plate at 250 cells/well using a selection medium (culture medium added with Zeocin (Invitrogen) to 250 μg/mL). Clones showing drug resistance were selected, and GluR1 flip/stargazin expressing clones were selected by an assay method using calcium influx as an index as shown below.
(3) Measurement Method of AMPA Receptor Function Enhancing Activity of Compound Using Calcium Influx as Index
CHO-K1/GluR1 flip/stargazin expressing cells were plated on a 384 well black transparent bottom plate (FMAT4307723) at 0.5×10^4 cells/well, and cultured in a 37° C., CO2 incubator (SANYO Electric Co., Ltd.) for 2 days. The medium in the cell plate was removed, and a calcium indicator (Calcium 4 Assay Kit, Molecular. Devices) containing 1.25 mM probenecid (Invitrogen) was added at 25 μL/well and the well was left standing in 37° C., CO2 incubator for 1 hr. The cell plate was set in FLITRtetra (Molecular Devices), a mixture (12.5 μL) of 9 mM glutamic acid diluted with assay buffer B (HBSS (Invitrogen), 0.1% BSA, 10 mM HEPES) and a test compound was added, and the amount of change in fluorescence level in 3 min was measured. In the definition here, the amount of change in fluorescence level of well added with glutamic acid at final concentration 3 mM and 300 μM cyclothiazide (TOCRIS) is 100%, the amount of change in fluorescence level of well added only with glutamic acid at final concentration 3 mM is 0%, and the compound activity was calculated according to the following formula. activity (%)=(X−C)/(T−C)×100 T: amount of change in fluorescence level of well added with glutamic acid at final concentration 3 mM and 300 μM cyclothiazide C: amount of change in fluorescence level of well added only with glutamic acid at final concentration 3 mM X: amount of change in fluorescence level of well added with to test compound

T1 sequence (P42261 19-906 isoform P42261-2 limits assumed): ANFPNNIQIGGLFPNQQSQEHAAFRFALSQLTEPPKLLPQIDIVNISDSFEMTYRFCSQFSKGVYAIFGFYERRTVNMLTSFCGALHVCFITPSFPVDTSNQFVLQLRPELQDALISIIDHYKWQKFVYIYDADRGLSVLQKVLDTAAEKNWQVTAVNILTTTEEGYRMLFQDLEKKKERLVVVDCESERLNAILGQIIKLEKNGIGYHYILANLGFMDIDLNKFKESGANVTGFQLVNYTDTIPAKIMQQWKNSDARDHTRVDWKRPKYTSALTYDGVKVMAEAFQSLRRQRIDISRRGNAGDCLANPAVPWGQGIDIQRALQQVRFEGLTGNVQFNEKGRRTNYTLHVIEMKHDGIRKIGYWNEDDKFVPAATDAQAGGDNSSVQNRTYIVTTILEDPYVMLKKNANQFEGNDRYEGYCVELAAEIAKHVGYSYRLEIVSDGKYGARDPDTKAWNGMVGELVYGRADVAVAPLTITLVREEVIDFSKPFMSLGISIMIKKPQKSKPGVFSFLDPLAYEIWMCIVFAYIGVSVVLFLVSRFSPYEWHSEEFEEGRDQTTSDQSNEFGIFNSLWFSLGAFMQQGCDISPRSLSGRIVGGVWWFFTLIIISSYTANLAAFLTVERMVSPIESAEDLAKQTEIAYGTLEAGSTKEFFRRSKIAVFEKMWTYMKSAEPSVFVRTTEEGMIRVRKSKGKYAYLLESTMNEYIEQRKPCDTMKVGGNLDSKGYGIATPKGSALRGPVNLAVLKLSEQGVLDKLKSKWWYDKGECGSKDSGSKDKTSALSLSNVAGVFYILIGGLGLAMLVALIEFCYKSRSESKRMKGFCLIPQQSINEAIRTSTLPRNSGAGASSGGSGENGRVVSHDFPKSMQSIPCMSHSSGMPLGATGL
T1 sequence (Q9Y698 whole entry partner): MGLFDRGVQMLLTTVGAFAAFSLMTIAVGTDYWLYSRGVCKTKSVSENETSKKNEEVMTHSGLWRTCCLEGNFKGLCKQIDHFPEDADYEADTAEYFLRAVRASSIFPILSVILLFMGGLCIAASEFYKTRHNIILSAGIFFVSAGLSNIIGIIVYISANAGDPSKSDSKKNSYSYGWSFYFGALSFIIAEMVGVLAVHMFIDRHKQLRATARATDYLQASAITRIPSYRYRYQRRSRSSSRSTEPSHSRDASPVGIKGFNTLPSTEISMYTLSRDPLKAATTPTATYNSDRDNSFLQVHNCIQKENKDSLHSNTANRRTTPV

Row | SMILES | activity (%)
1 | CCS(=O)(=O)N[C@H]1CCN(C(C)=O)C[C@@H]1COc1ccc(-n2cccn2)cc1 (relative stereo) [Example 3, trans-N-[1-acetyl-3-{[4-(1H-pyrazol-1-yl)phenoxy]methyl}piperidin-4-yl]ethanesulfonamide] | 57
2 | CCS(=O)(=O)N[C@H]1CCOC[C@@H]1COc1ccc(C2CC2)cc1 (relative stereo) [Example 7, trans-N-{3-[(4-cyclopropylphenoxy)methyl]tetrahydro-2H-pyran-4-yl}ethanesulfonamide] | 91
3 | O=S(=O)(N[C@@H]1CCCC[C@H]1COc1ccc(C2CC2)cc1)C1CC1 (relative stereo) [Example 12, trans-N-[2-[(4-cyclopropylphenoxy)methyl]cyclohexyl]cyclopropanesulfonamide] | 72
4 | CC(C)S(=O)(=O)N[C@H]1CCCC[C@@H]1COc1ccc(C2CC2)cc1 (relative stereo) [Example 21, trans-N-{2-[(4-cyclopropylphenoxy)methyl]cyclohexyl}propane-2-sulfonamide] | 82
5 | CCS(=O)(=O)N[C@H]1CCC(F)(F)C[C@@H]1COc1ccc(-n2cccn2)cc1 (relative stereo) [Example 130, trans-N-[4,4-difluoro-2-{[4-(1H-pyrazol-1-yl)phenoxy]methyl}cyclohexyl]ethanesulfonamide] | 90
6 | CCS(=O)(=O)N[C@H]1CCOC[C@@H]1COc1ccc(C(C)=O)c(F)c1 (relative stereo) [Example 131, trans-N-{3-[(4-acetyl-3-fluorophenoxy)methyl]tetrahydro-2H-pyran-4-yl}ethanesulfonamide] | 89
7 | CCS(=O)(=O)N[C@H]1CCOC[C@@H]1COc1ccc(-n2cc(C)cn2)cc1 (relative stereo) [Example 134, trans-N-[3-{[4-(4-methyl-1H-pyrazol-1-yl)phenoxy]methyl}tetrahydro-2H-pyran-4-yl]ethanesulfonamide] | 92
8 | CCS(=O)(=O)N[C@H]1CCOC[C@@H]1COc1ccc(C(C)=O)cc1 (relative stereo) [Example 135, trans-N-{3-[(4-acetylphenoxy)methyl]tetrahydro-2H-pyran-4-yl}ethanesulfonamide] | 88
9 | CCS(=O)(=O)N[C@H]1CCOC[C@@H]1COc1ccc(C(C)=O)cc1F (relative stereo) [Example 136, trans-N-{3-[(4-acetyl-2-fluorophenoxy)methyl]tetrahydro-2H-pyran-4-yl}ethanesulfonamide] | 85
10 | CCS(=O)(=O)N[C@H]1CCOC[C@@H]1COc1ccc(-c2ccccn2)cc1 (relative stereo) [Example 137, trans-N-{3-[(4-pyridin-2-ylphenoxy)methyl]tetrahydro-2H-pyran-4-yl}ethanesulfonamide] | 91
11 | CCS(=O)(=O)N[C@H]1CCOC[C@@H]1COc1ccc(-c2cccnc2)cc1 (relative stereo) [Example 138, trans-N-{3-[(4-pyridin-3-ylphenoxy)methyl]tetrahydro-2H-pyran-4-yl}ethanesulfonamide] | 95
12 | CCS(=O)(=O)N[C@H]1CCOC[C@@H]1COc1ccc(-n2cnc(C)c2)cc1 (relative stereo) [Example 139, trans-N-[3-{[4-(4-methyl-1H-imidazol-1-yl)phenoxy]methyl}tetrahydro-2H-pyran-4-yl]ethanesulfonamide] | 97
13 | CCS(=O)(=O)N[C@H]1CCOC[C@@H]1COc1ccc(-n2cc(Cl)cn2)cc1 (relative stereo) [Example 140, trans-N-[3-{[4-(4-chloro-1H-pyrazol-1-yl)phenoxy]methyl}tetrahydro-2H-pyran-4-yl]ethanesulfonamide] | 90
14 | CCS(=O)(=O)N[C@H]1CCC(F)(F)C[C@@H]1COc1ccc(-n2cc(C)cn2)cc1 (relative stereo) [Example 141, trans-N-[4,4-difluoro-2-{[4-(4-methyl-1H-pyrazol-1-yl)phenoxy]methyl}cyclohexyl]ethanesulfonamide] | 78
15 | CCS(=O)(=O)N[C@H]1CCC(F)(F)C[C@@H]1COc1ccc(-n2ccc(C)n2)cc1 (relative stereo) [Example 142, trans-N-[4,4-difluoro-2-{[4-(3-methyl-1H-pyrazol-1-yl)phenoxy]methyl}cyclohexyl]ethanesulfonamide] | 54
16 | CCS(=O)(=O)N[C@H]1CCC(F)(F)C[C@@H]1COc1ccc(-n2nccc2C)cc1 (relative stereo) [Example 143, trans-N-[4,4-difluoro-2-{[4-(5-methyl-1H-pyrazol-1-yl)phenoxy]methyl}cyclohexyl]ethanesulfonamide] | 42
17 | CCS(=O)(=O)N[C@H]1CCOC[C@@H]1COc1ccc(-n2cccn2)cc1 (single isomer, unassigned) [Example 6, trans-N-[3-{[4-(1H-pyrazol-1-yl)phenoxy]methyl}tetrahydro-2H-pyran-4-yl]ethanesulfonamide] | 82

Second part, the molecule after the results:

Row | activity (%) | SMILES
18 | 79 | CCS(=O)(=O)N[C@H]1CCCC[C@@H]1COc1ccc(C(C)C)cc1 (relative stereo) [Example 8, trans-N-[2-{[4-(1-methylethyl)phenoxy]methyl}cyclohexyl]ethanesulfonamide]
19 | 88 | CCS(=O)(=O)N[C@H]1CCC[C@@H]1COc1ccc(C(C)C)cc1 (relative stereo) [Example 15, trans-N-[2-{[4-(1-methylethyl)phenoxy]methyl}cyclopentyl]ethanesulfonamide]
20 | 77 | CCS(=O)(=O)N[C@H]1CCOC[C@@H]1COc1ccc(C(C)C)cc1 (relative stereo) [Example 34, trans-N-{3-[(4-isopropylphenoxy)methyl]tetrahydro-2H-pyran-4-yl}ethanesulfonamide]
21 | 81 | CCS(=O)(=O)N[C@H]1CCC(=O)C[C@@H]1COc1ccc(C(C)C)cc1 (relative stereo) [Example 39, trans-N-[2-{[4-(1-methylethyl)phenoxy]methyl}-4-oxocyclohexyl]ethanesulfonamide]
22 | 86 | CCS(=O)(=O)N[C@H]1CCCC[C@@H]1COc1ccc(C2COC2)cc1 (relative stereo) [Example 43, trans-N-{2-[(4-oxetan-3-ylphenoxy)methyl]cyclohexyl}ethanesulfonamide]
23 | 78 | CCS(=O)(=O)N[C@@H]1CCCC[C@H]1COc1ccc(CCC#N)cc1 (relative stereo) [Example 50, trans-N-[2-{[4-(2-cyanoethyl)phenoxy]methyl}cyclohexyl] ethanesulfonamide]
24 | 69 | CCS(=O)(=O)N[C@H]1CCCC[C@@H]1COc1ccc(OC(F)F)cc1 (relative stereo) [Example 52, trans-N-[2-{[4-(difluoromethoxy)phenoxy]methyl}cyclo-hexyl]ethanesulfonamide]
25 | 80 | CCS(=O)(=O)N[C@H]1CCCC[C@@H]1COc1ccc(-n2cccn2)cc1 (relative stereo) [Example 60, trans-N-[2-{[4-(1H-pyrazol-1-yl)phenoxy]methyl}cyclohexyl]ethane-sulfonamide]
26 | 75 | CCS(=O)(=O)N[C@H]1CCCC[C@@H]1COc1ccc(C(C)=O)cc1 (relative stereo) [Example 89, trans-N-{2-[(4-acetylphenoxy)methyl]cyclohexyl}ethane-sulfonamide]
27 | 73 | CCS(=O)(=O)N[C@H]1COCC[C@@H]1COc1ccc(C(C)C)cc1 (relative stereo) [Example 95, trans-N-[4-{[4-(1-methylethyl)phenoxy]methyl}tetrahydro-2H-pyran-3-yl]ethanesulfonamide]
